The text below walks through data of patent publication EP4361137A1, “PRUNE1 INHIBITORS AND THERAPEUTIC USE THEREOF” (CEINGE Biotecnologie Avanzate Franco Salvatore s.c. a r.l., priority 2022, dated 2024).

For one series, the system named is D425-MED cells. Briefly: Real-time cell proliferation assay (cell index, xCELLigence). It counts as cell-based, human. To be noted: D425-Med cells. As to the method: J774A.1 murine macrophages (referred to as J774 cells; ATCC: #TIB-67), MMTV-Prune1-Wnt1 cells were grown in high-glucose Dulbecco's modified Eagle's medium (DMEM; Euroclone) supplemented with 20% (v/v) FBS, 2 mM L-glutamine, and 1% (v/v) antibiotics (Pen/Strep). D425-MED, D425-MED-Luc and […] cells were grown in high-glucose Dulbecco's modified Eagle's medium (DMEM; Euroclone) and Iscove's Modified Dulbecco's Medium (IMDM; Sigma) at 1:1 (v/v) dilution supplemented with 20% (v/v) FBS, 2 mM L-glutamine, 1% non-essential amino acid solution (M7145; Sigma-Aldrich/Merck), and 1% (v/v) antibiotics (Pen/Strep). The cells were grown at 37 °C in a humidified atmosphere of 95% air, 5% CO2 (v/v).
(§1) D425.MED and MMTV-Prune1/Wnt1 cells were plated and treated with increasing concentrations of LEO-AA7.5(S)T for 24 hours. Water-treated cells were used as negative control for the experiments.
Cellular proliferation rates were determined with the xCELLigence system (Roche). D425-MED, MATH-Prune1/TP53-/- and MMTV-Prune1/Wnt1 cells (8 × 10^3) were treated with increasing concentrations of LEO-AA7.5(S)T, harvested, and then added to a single well of an xCELLigence E-plate 16. The proliferation rates were determined at 2-min intervals by measuring the impedance changes across the electrodes at the bottoms of the wells. These cell index values were calculated by the xCELLigence RTCA software. with vehicle-treated cells were the negative control. Impedance was measured every 2 min over 24 hours. The IC50 values were calculated through nonlinear regression analysis performed with Graph Pad Prism 9 ([inhibitor] vs. response (three parameters). Data are means ± SD of three independent experiments.

The next series can be described thus: Acute toxicity in vivo. To be noted: for hepatotoxicity or nephrotoxicity (glutamate-pyruvate transaminase 1, creatinine blood levels, blood urea nitrogen): HCl salt. Set-up: species or system FVB mice. The method, then: The toxicity of LEO-AA7.5(S)T was determined with 4-week-old FVB mice grouped according to body weight. Escalating doses of LEO-AA7.5(S)T (60mg or 120mg/kg/day) or vehicle (water) were administered intraperitoneally, daily for 12 days. At sacrifice, the blood and organs were collected and evaluated. Haematological and biochemical markers of hepatic and renal functions were evaluated. Data are expressed as means from four mice within each treatment group.

In a further series the test system is human and murine Prune1. Put plainly: qPCR of PRUNE1 mRNA in MMTV-Prune1/Wnt1 cells. It counts as cell-based. More on the design: dose or concentration left out as unconfirmed. The method, then:
as §1
(§2) RNA samples were extracted using TRIzol RNA Isolation Reagent (15596026, Invitrogen), according to the manufacturer instructions. Reverse transcription was performed with 5× All-In-One RT MasterMix (g592; ABM), according to the manufacturer instructions. The reverse transcription products (cDNA) were amplified by qRT-PCR using an RT-PCR system (7900; Applied Biosystems, Foster City, CA, USA). The cDNA preparation was through the cycling method, by incubating the complete reaction mix as follows: cDNA reactions: (37 °C for 10 min and 60 °C for 15 min); Heat-inactivation: 95 °C for 3 min; Hold stage: 4 °C. The targets were detected with the SYBR green approach, using BrightGreen BlasTaq 2× PCR MasterMix (G895; ABM). Human ACTB was used as the housekeeping gene to normalize the quantification cycle (Cq) values of the other genes. […] Relative expression of the target genes was determined using the 2^-ΔΔCq method, as the fold increase compared with the controls. […]

A further series has as its system human PRUNE1. Put plainly: qPCR of PRUNE1 mRNA in D425-MED cells. It counts as cell-based. To be noted: 10 µM, 24 hours, relative to vehicle (2^-ΔΔCt). The method, then:
as §1, §2

In another series the test system is MMTV-Prune1/Wnt1 cells. Put plainly: Real-time cell migration analysis (cell index). It counts as cell-based, murine. To be noted: 10 µM and 100 µM, dose dependent.
Setting [1] is: 60 and 120 mg/kg intraperitoneally, daily for 12 days.

As to `COc1ccc(CNc2ncnc(N3CCC[C@H](CO)C3)n2)cc1.Cl` [LEO-AA7.5(S)T, (S)-(1-(4-((4-methoxybenzyl)amino)-1,3,5-triazin-2-yl)piperidin-3-yl)methanol HCl salt], the “cell proliferation rate, combination with Vincristine” value with D425-MED cells (10 µM added to 10 nM or 1 nM Vincristine) is recorded as “reduces the cell proliferation rate”. Further, the “inhibition of cell proliferation, combination with Seclidemstat [SP-2577]” value in the series with D425-MED cells (10 µM plus 22.5 µM Seclidemstat) is given as “enhance the inhibition of cell proliferation”. The “half maximal inhibitory concentration (IC50) for the inhibition of cell proliferation index” value in the series on D425-MED cells (impedance every 2 min over 24 h) was 71 µM. Besides, the “liver, spleen and kidney weight, treated vs controls” value in the series “Acute toxicity in vivo” (60mg or 120mg/kg/day intraperitoneally for 12 days) is on record as “no decrease”. In addition, in “Acute toxicity in vivo” (setting [1]), the “haematological parameters (e.g. white blood cell count)” value is on record as “no significant variations”; the immediate toxicity effects result is given as “no immediate toxicity effects”; the “hepatotoxicity or nephrotoxicity (glutamate-pyruvate transaminase 1, creatinine blood levels, blood urea nitrogen)” value is “absence of drug-induced hepatotoxicity and renal failure”. Besides, the “hepatotoxicity or nephrotoxicity (glutamate-pyruvate transaminase 1, creatinine blood levels, blood urea nitrogen)” value in the series “Acute toxicity in vivo” (60 and 120 mg/kg intraperitoneally, daily for 12 days, listed as (S)-(1-(4-((4-methoxybenzyl)amino)-1,3,5-triazin-2-yl)piperidin-3-yl)methanol HC) is “no signs of hepatotoxicity or nephrotoxicity”. The “degradation of human and murine Prune transcript” value in the series with human and murine Prune1 is recorded as “enhance the degradation”. Further, the “endogenous Prune1 mRNA” value in the series with human PRUNE1 came to 0.3 fold. Also, the migration rate entry in the series on MMTV-Prune1/Wnt1 cells is listed as “reduction”.
